Results taken from patent US20170165200A1, “COMPOSITION OF LIPID-BASED NANOPARTICLES FOR SMALL MOLECULES AND MACROMOLECULES” (University of North Texas Health Science Center, priority 2015, published 2017).

Experiments:
PC12 cells = assay: Neurite outgrowth study; type: cell-based
Description: Neurite Outgrowth Study. It is important to maintain protein's activity after the formulation of the NPs. Thus, the inventors chose to measure the bioactivity of NGF HDL-mimicking NPs in PC12 cells for neurite outgrowth. They pre-coated a 6-well plate with rat tail collagen type I. They seeded PC12 cells at a density of 10000 cells/well to the pre-coated 6-well plate overnight to allow cells to attach on the plates. They diluted free NGF (10 μg/ml) and NGF HDL-mimicking NPs (10 μg/ml) with the culture medium to prepare various concentrations at 0.5, 1, 5, 10, 50, and 100 ng/ml using half-half dilution. Then, they added 100 μl of sample into each well of the plate and culture for 4 days. At day 4 they changed the medium to fresh medium containing the corresponding treatment and then continue the treatment for another 3 days. At day 7, they visualized cells by an inverted light microscope and take the imaging from each well at random spots under 10× magnification.

[1] = In vitro release of NGF by dialysis in 5% BSA-PBS; type: physicochemical; conditions: 5% BSA-PBS (pH 7), 37° C., first hour (n=4)
Description: In vitro release study. The release of NGF from NGF NPs (n=4) was studied using a dialysis method. The release medium was PBS (pH 7) containing 5% BSA to mimic the physiological condition in blood. Briefly, 200 μl NGF NPs and […] release medium were loaded into the dialysis tube (invco 300 kDa). Then the dialysis tube was placed into a 30 ml release medium and shaken at a 37° C. at 135 rpm. At the time intervals (1, 2, 4, 6, 8, 24, 48 and 72 hours), 100 μl of the release medium were withdrawn and replaced with an equal volume of fresh medium. The amounts of released NGF in the medium were analyzed by a NGF Sandwich ELISA kit. As a control, free NGF (n=4) was studied in parallel.

[2] = rat, in vivo, iv; cited from earlier work
[3] = mice; cited from earlier work

Row | Compound | neurite outgrowth (PC12 cells; day 7, concentration of NGF lower than 10 ng/ml) | neurite outgrowth (PC12 cells; day 7, treatment concentration higher than 10 ng/ml) | NGF released [1] | half-life [2] | maximal tolerate dose of single dose [3]
1 | free NGF: Recombinant human NGF (nerve growth factor) | neurite outgrowth cannot be observed clearly | neurite outgrowth was clearly observed | 83% | about 5.4 min | –
2 | CC(=O)O[C@@]12CO[C@@H]1C[C@H](O)[C@@]1(C)C(=O)[C@H](O)C3=C(C)[C@@H](OC(=O)[C@H](O)[C@@H](NC(=O)OC(C)(C)C)c4ccccc4)C[C@@](O)([C@@H](OC(=O)c4ccccc4)[C@H]21)C3(C)C [DTX, Docetaxel] | – | – | – | – | 15 to 33 mg/kg
